Source: patent publication EP2054729B1, “PROCESS AND APPARATUS FOR ION CHANNEL CHARACTERIZATION” (Universität Hannover, priority 2006, dated 2008)

Target: T1, connexin hCx26 (Homo sapiens, UniProt P29033)
T1 construct: made in house; host or cells: E. coli Top10
Assay: Permeation (gating activity) assay with ion channel protein in lipid membrane vesicles, fluorescence detection of Lucifer Yellow release
Type: biochemical
Conditions: for inhibitory effect: concentration range in which inhibition of gating activity was shown, same experimental setup as for carbenoxolone, vesicles adjusted to 50 µM Ca^2+, triggered by EDTA addition or heat pulse
Experimental: Lipid membrane vesicles are generated by resuspending a POPC lipid film in 150 mM sodium chloride, 10 mM Tris-HCl, pH 8, containing Lucifer Yellow as a replacement for the cation species permeated by the exemplary ion channel protein.
Following centrifugation, the supernatant is removed and vesicles are suspended in the same medium for 10 minutes. As the ion channel protein, connexin hCx26, reconstituted to its hexameric form after expression in the E.coli strain Top10 (Invitrogen), using the expression plasmid pTrcHisTOPO (available from Invitrogen, Germany) containing the hCx26 gene under the control of a trc-promoter. The gene sequence is accessible at GenBank under accession number NP 003995. Cultivation was in LB-medium containing ampicillin as the selection marker at 37 °C.
For incorporation of ion channel protein, 250 µg/mL were solubilised in 30 mM octylglucoside, 150 mM sodium chloride, 10 mM Tris-HCl, pH 8 and added to 1 mL lipid membrane vesicle suspension (10 mg POPC/mL). After incubation for 1 to 12 hours under mild agitation at 4 °C, detergent was removed by dialysis for two days at 4 °C in 150 mM sodium chloride, 10 mM Tris-HCl, pH 8, including three changes of buffer volume. Finally, the vesicles were transferred by dialysis against buffer into 150 mM sodium chloride, 10 mM Tris-HCl, pH 8 at 4 °C for removal of the ion species, namely the replacement Lucifer Yellow or the physiologically permeated ion potassium, which are permeated by the ion channel protein present. […]
Starting at a basic temperature of 4 °C, the microtiter plate was heated incrementally by steps of 2 °C each using a thermostat, with intermediate or permanent measurement of fluorescence emission under irradiation at the excitation wavelength.
From a comparison of the increase of fluorescence at increasing temperatures of a reaction composition containing the effector to that measured for an identical composition, except for the absence of effector, allows to characterize the effector at its given concentration in the assay, e.g. as an inhibitor, activator or modulator of the gating activity. […]

concentration dependency of gating activity (carbenoxolone up to final concentrations of 10 mM, plate at 28 °C, result shown graphically only (Figures 9 and 10)) | inhibitory effect | Compound
inhibitory effect | – | CC1(C)[C@@H](OC(=O)CCC(=O)O)CC[C@]2(C)[C@H]3C(=O)C=C4[C@@H]5C[C@@](C)(C(=O)O)CC[C@]5(C)CC[C@@]4(C)[C@]3(C)CC[C@@H]12 [carbenoxolone]
– | nanomolar to picomolar range | CCCCCCCO [heptanol]
– | millimolar to micromolar range | cobalt ions
